According to ChEMBL document CHEMBL3758124, “Synthesis and biological evaluation of new securinine analogues as potential anticancer agents” (Eur J Med Chem, 2016):

Assay: Cytotoxicity against human HCT116 cells assessed as growth inhibition at 1 uM after 72 hrs by ATPlite assay relative to control
Format: functional
Conditions: HCT-116, 72 h, read-out: GI

| SMILES | inhibition of growth at 1 µM |
| --- | --- |
| COC(=O)c1cccc(C2=CC3=CC(=O)O[C@@]34C[C@@H]2N2CCCC[C@@H]24)c1 | 4% |
| CC(=O)c1ccc(C2=CC3=CC(=O)O[C@@]34C[C@@H]2N2CCCC[C@@H]24)cc1 | 2.4% |
| COC(=O)c1ccc(C2=CC3=CC(=O)O[C@@]34C[C@@H]2N2CCCC[C@@H]24)cc1 | 7.2% |
| CC(=O)c1cccc(C2=CC3=CC(=O)O[C@@]34C[C@@H]2N2CCCC[C@@H]24)c1 | 3.6% |
| O=C1C=C2C=C(c3cccc(C(F)(F)F)c3)[C@@H]3C[C@@]2(O1)[C@H]1CCCCN31 | 21% |
| O=C1C=C2C=C(c3ccc4c(c3)OCO4)[C@@H]3C[C@@]2(O1)[C@H]1CCCCN31 | -1.7% |
| Cc1ccc(C2=CC3=CC(=O)O[C@@]34C[C@@H]2N2CCCC[C@@H]24)cc1 | 3.4% |
| O=C1C=C2C=C(c3ccc4c(c3)Cc3ccccc3-4)[C@@H]3C[C@@]2(O1)[C@H]1CCCCN31 | 20.9% |
| CN(C)c1ccc(C2=CC3=CC(=O)O[C@@]34C[C@@H]2N2CCCC[C@@H]24)cc1 | 3.7% |
| O=C1C=C2C=C(c3ccc(F)cc3)[C@@H]3C[C@@]2(O1)[C@H]1CCCCN31 | -2.6% |
| O=C1C=C2C=C(c3cccc(F)c3)[C@@H]3C[C@@]2(O1)[C@H]1CCCCN31 | 32.1% |

Assay: Cytotoxicity against human HCT116 cells assessed as growth inhibition at 20 uM after 72 hrs by ATPlite assay relative to control
Format: functional
Conditions: HCT-116, 72 h, read-out: GI

| SMILES | inhibition of growth at 20 µM |
| --- | --- |
| COC(=O)c1cccc(C2=CC3=CC(=O)O[C@@]34C[C@@H]2N2CCCC[C@@H]24)c1 | 82.8% |
| CC(=O)c1ccc(C2=CC3=CC(=O)O[C@@]34C[C@@H]2N2CCCC[C@@H]24)cc1 | 27.3% |
| COC(=O)c1ccc(C2=CC3=CC(=O)O[C@@]34C[C@@H]2N2CCCC[C@@H]24)cc1 | 24.4% |
| CC(=O)c1cccc(C2=CC3=CC(=O)O[C@@]34C[C@@H]2N2CCCC[C@@H]24)c1 | 65% |
| O=C1C=C2C=C(c3cccc(C(F)(F)F)c3)[C@@H]3C[C@@]2(O1)[C@H]1CCCCN31 | 83.1% |
| O=C1C=C2C=C(c3ccc4c(c3)OCO4)[C@@H]3C[C@@]2(O1)[C@H]1CCCCN31 | 90% |
| Cc1ccc(C2=CC3=CC(=O)O[C@@]34C[C@@H]2N2CCCC[C@@H]24)cc1 | 82.9% |
| O=C1C=C2C=C(c3ccc4c(c3)Cc3ccccc3-4)[C@@H]3C[C@@]2(O1)[C@H]1CCCCN31 | 75.1% |
| CN(C)c1ccc(C2=CC3=CC(=O)O[C@@]34C[C@@H]2N2CCCC[C@@H]24)cc1 | 47.6% |
| O=C1C=C2C=C(c3ccc(F)cc3)[C@@H]3C[C@@]2(O1)[C@H]1CCCCN31 | 52.5% |
| O=C1C=C2C=C(c3cccc(F)c3)[C@@H]3C[C@@]2(O1)[C@H]1CCCCN31 | 84.1% |

Assay: Cytotoxicity against human HCT116 cells assessed as growth inhibition at 10 uM after 72 hrs by ATPlite assay relative to control
Format: functional
Conditions: HCT-116, 72 h, read-out: GI

| SMILES | inhibition of growth at 10 µM |
| --- | --- |
| COC(=O)c1cccc(C2=CC3=CC(=O)O[C@@]34C[C@@H]2N2CCCC[C@@H]24)c1 | 60.2% |
| CC(=O)c1ccc(C2=CC3=CC(=O)O[C@@]34C[C@@H]2N2CCCC[C@@H]24)cc1 | 11.7% |
| COC(=O)c1ccc(C2=CC3=CC(=O)O[C@@]34C[C@@H]2N2CCCC[C@@H]24)cc1 | 8.3% |
| CC(=O)c1cccc(C2=CC3=CC(=O)O[C@@]34C[C@@H]2N2CCCC[C@@H]24)c1 | 35.3% |
| O=C1C=C2C=C(c3cccc(C(F)(F)F)c3)[C@@H]3C[C@@]2(O1)[C@H]1CCCCN31 | 81.9% |
| O=C1C=C2C=C(c3ccc4c(c3)OCO4)[C@@H]3C[C@@]2(O1)[C@H]1CCCCN31 | 86.9% |
| Cc1ccc(C2=CC3=CC(=O)O[C@@]34C[C@@H]2N2CCCC[C@@H]24)cc1 | 73% |
| O=C1C=C2C=C(c3ccc4c(c3)Cc3ccccc3-4)[C@@H]3C[C@@]2(O1)[C@H]1CCCCN31 | 53.6% |
| CN(C)c1ccc(C2=CC3=CC(=O)O[C@@]34C[C@@H]2N2CCCC[C@@H]24)cc1 | 21.5% |
| O=C1C=C2C=C(c3ccc(F)cc3)[C@@H]3C[C@@]2(O1)[C@H]1CCCCN31 | 30.7% |
| O=C1C=C2C=C(c3cccc(F)c3)[C@@H]3C[C@@]2(O1)[C@H]1CCCCN31 | 80.3% |
